Data from patent US6660722B2, “Therapeutical treatments” (Laboratoires Goemar S.A., priority 2001, dated 2003).

Columns and labels:
[1] = system: target cells of tumor cell line YAC-1; assay: in vitro cytotoxicity assay of NK cells (mouse splenocytes pre-treated with glucan) on YAC-1 target cells, CYTOTOX 96 LDH release; format: cell-based, Balb/c mice; parameters: stimulated NK cells more cytotoxic than the control: concentration or dose not given beside the values; conditions: for NK cell killing more active than BEI: versus BEI-stimulated cell killing; for NK cell killing more active than lentinan: versus Lentinan-stimulated NK cell killing; for stimulated NK cells more cytotoxic than the control: versus unstimulated NK cells
Protocol: In that respect, Applicants first carried out an in vitro cytotoxicity assay on spleen cells isolated from spleen of Balb/c mice by standard methods.
These tests were conducted to evaluate the effects of soluble laminarin on the cytotoxicity of NK (Natural Killer) cells of mouse and to compare these effects with those of two known glucans, ie.
The spleens isolated from the above said Balb/c mice were placed into Petri dishes containing RPMI 1640 medium obtained from Life Technologies USA, supplemented with 5% by weight of FCS (fetal calf serum from Life Technologies USA). The spleens were cut into small pieces and a suspension was made by pressing the minced spleens against the bottom of Petri dishes containing PBS (Phosphate Buffered Saline obtained from Biowhitaker Inc,8830 Biggsford Road, Walkersville, Md. 21793 USA). The thus obtained pieces of tissue were gently teased over stainless steel screens using a plunger of a 5-ml syringe. Large debris and cell clumps were removed by layering the cell suspension over 3 ml of heat-inactivated FCS for 10 minutes on ice. After elimination of erythrocytes by incubation during 10 seconds in distilled water and five washes in cold PBS, the thus obtained cells which are called splenocytes, were resuspended in PBS and counted.
The evaluation of the cytotoxicity of these cell suspensions was conducted by suing a non radioactive cytotoxicity assay marketed under the trademark CYTOTOX 96 by Promega, Madison, Wis., USA.
For these experiments, the splenocytes which are also called “effector cells” were pre-treated during 30 minutes by mixing the suspensions containing them respectively with soluble laminarin, with lentinan and with BEI glucan; the mixtures were subsequently incubated with suspensions of target cells of tumor cell line YAC-1 which is known to be relatively […] to normal inactivated N K cells.
The specificity of the assay was established by using the following three different ratios effector cells/target cells denoted ET: 10:1, 50:1 and 100:1.
For each ratio, 3 counts were carried out and experiments were repeated 3 times on 3 different days.
Controls consisted of effector cells incubated only with PBS.
More particularly, the above cell suspensions of splenocytes (effector cells) were diluted to 10^6 cells/ml and placed in individual wells of V-shaped 96-well microplates at a concentration of 0.1 ml/well.
Laminarin, lentinan and BEI glucan which occur in the form of powders, were added after dissolution in PBS at an identical concentration of 2 μg/ml in PBS and the plates were incubated for 30 minutes at 37° C. in an humidified CO2 incubator.
After incubation, the plates i.e. the incubated cells contained in the wells were washed three times with RPMI 1640 medium, and 50 μl of the suspension of target cell line YAC-1 were added in each well, respecting the above “effector cells/target cells” ratios or E T: 10:1, 50:1 and 100:1.
For each of these ratios, 3 individual wells were used, the number of target cells being respectively 10^4,2×10^3 and 1×10^3.
In addition, target cells for spontaneous release control, target cells for maximum release control and effector cells release control were introduced into appropriate wells, i.e. 3 individual wells for each concentration used.
Basically, it is necessary to obtain the values of spontaneous release from both target and effector cells, and these values serve as a background. The maximum release control serves as 100%.
After spinning the plates at 250 g for 5 minutes in a centrifuge, the plates were incubated for 4 hours at 35° C. in a humidified CO2 incubator.
For evaluating the cytotoxicity activity of the effector or N K cells, procedure was as follows, using the instructions of the manufacturer PROMEGA.
A quantity of 10 μl of lysis solution, included in the Kit, was added 45 min before the end of incubation into appropriate control wells, i.e. into wells with maximum release control. […]

[2] = system: mouse breast cancer cell line 64 Ptas; assay: tumor growth in vivo in mice inoculated with breast cancer cells; conditions: daily intraperitoneal injection during 14 days; doses 100 and 250 μg per injection (dose of the value not stated)
Protocol: The above said data have been confirmed by additional experiments where the effects of soluble laminarin on tumor growth in vivo were evaluated; yeast derived glucan BEI was used for comparison.
In these additional experiments, mice were inoculated with mouse breast cancer cell line 64 Ptas. Experimental treatment was achieved by daily intraperitoneal injection during 14 days of two different doses of soluble laminarin and BEI diluted in PBS; the said two different doses were respectively 100 and 250 μg of laminarin per injection.
At the end of the 14 days treatment, the mice were killed, tumors were removed and weighted.

oral LD 50 in rats = format: in vivo; conditions: given orally in rats
Protocol: Its LD 50 is high and was determined as to be greater than 2000 mg/Kg given orally in rats; furthermore there are no special handling requirements.

[3] = solubility of soluble laminarin; format: physicochemical

laminarin [soluble laminarin]
NK cell killing more active than BEI ([1]; ET 10:1): 132% | NK cell killing more active than lentinan ([1]; ET 10:1): 133% | stimulated NK cells more cytotoxic than the control ([1]; ET 10:1): 245% | NK cell killing more active than BEI ([1]; ET 50:1): 122% | NK cell killing more active than lentinan ([1]; ET 50:1): 123% | stimulated NK cells more cytotoxic than the control ([1]; ET 50:1): 196% | NK cell killing more active than BEI ([1]; ET 100:1): 129% | NK cell killing more active than lentinan ([1]; ET 100:1): 130% | stimulated NK cells more cytotoxic than the control ([1]; ET 100:1): 180% | weight of the tumors with respect to the weight of the tumors treated with the control [2]: 28% | LD 50 (oral LD 50 in rats): greater than 2000 mg/Kg | solubility in ethanol, 2-propanol and acetone ([3]; ethanol, 2-propanol and acetone): substantially insoluble | water-soluble ([3]; water): up to 60 g/l
